Our source for the GI50 and TGI values is PubChem BioAssay (NCI).

“And” between values parts separate entries of the source, which are not always exact repeats. Equal entries are not always repeated.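 Briefly, cells in 96-well plates were exposed to five compound concentrations for 48 h, and endpoints were estimated by linear interpolation. The concentration for 50% growth inhibition is given as GI50. TGI: concentration producing complete growth inhibition.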 Some results are limits rather than exact numbers.

As a reminder, the GI50 is the concentration that inhibits growth by half. As a reminder, the TGI is the concentration giving total growth inhibition. Read a high TGI as lower sensitivity of the cells.

The test has as its system MDA-MB-468 breast. The test can be described thus: DTP human tumour cell line panel, 48 h.
For `C=CC(=O)N1CC2(CC(n3nc(-c4ccc5c(cnn5C)c4)c(-c4c(Cl)c(C)cc5[nH]ncc45)c3C)C2)C1`, the GI50 is 2.67 µM and the TGI came to 9.27 µM.

Turning to `CN(CC(=O)N(Cc1ccc(C2CCCCC2)cc1)c1ccc(C(=O)O)cc1)S(=O)(=O)c1c(F)c(F)c(F)c(F)c1F`, the GI50 was 1.76 µM and the TGI came to 3.27 µM.

`N#CC1c2ccccc2C=CN1C(=O)N(c1ccccc1)c1ccccc1` (configuration not stated): the GI50 is 1.7 µM and the TGI is 3.4 µM.

As for `COC(=O)[C@H]1CCCN1C(=O)[C@H]1CCCN1C(=O)[C@H](Cc1c[nH]c2ccccc12)NC(=S)Nc1cc(C(F)(F)F)cc(C(F)(F)F)c1`, the GI50 is 3.68 µM and the TGI is 68.8 µM.

As for `CCOC(=O)c1cnc2c(C)cccc2c1Nc1ccc(C(C)=O)cc1`, the GI50 is 26.3 µM and the TGI is over 100 µM.

In the case of `O=C(Nc1nc2ccccc2s1)Nc1ccc([N+](=O)[O-])cc1Cl`, the GI50 is 10.1 µM and the TGI was 27.2 µM.

In the case of `CN1CCN(CCCOc2cccc3nc(Nc4ccc(Cl)c(C(F)(F)F)c4)ccc23)CC1`, the GI50 is 1.6 µM and the TGI is 3.22 µM.

As to `CCN1CCN(C(=O)[C@]23CCC(C)(C)C[C@@H]2C2=CC[C@@H]4[C@@]5(C)C/C(=C/c6ccncc6)C(=O)C(C)(C)[C@@H]5CC[C@@]4(C)[C@]2(C)CC3)CC1`, the GI50 is 1.43 µM and the TGI amounted to 3.14 µM.

For `Cn1ncc(Cl)c1-c1cc(C(=O)N[C@H](CN)Cc2ccc(F)c(F)c2)oc1Cl`, the GI50 was < 0.0169 µM and 0.0194 µM; the TGI was 0.282 µM and 0.458 µM.

`Cn1ncc2ncc(-c3ccc4ncc(C#N)c(N5CCc6cc(F)c(Cl)cc65)c4c3)cc21`: the GI50 was 2.44 µM and the TGI amounted to 10.6 µM.

`CCCCCCCCCCCC[n+]1ccc2ccccc2c1`: the GI50 was 0.206 µM and the TGI is 0.808 µM.

Turning to `CC[n+]1c(/C=C/C=C2\N(C)c3ccccc3C2(C)C)sc2ccccc21`, the GI50 was 2.77 µM and the TGI stood at 8.44 µM.

Take `O=C(CN1C(=O)S/C(=C\C(Cl)=C\c2ccccc2)C1=O)NC1C=CS(=O)(=O)C1` (configuration not stated): the GI50 is 0.531 µM and the TGI worked out at 2.29 µM.

On to `COc1ccc2c(OCc3nnc4ccc(-c5ccccc5)nn34)ccnc2c1`, for which the GI50 was 3.22 µM and the TGI was over 100 µM.

Take `O=C(COc1cccc(/C=C2\CSc3ccccc3C2=O)c1)Nc1nccs1`: the GI50 is 1.59 µM and the TGI is 3.15 µM.

Consider `Cn1cc(C2=C(c3cn(CCCCCSC(=N)N)c4ccccc34)C(=O)NC2=O)c2ccccc21`, for which the GI50 was 1.55 µM and the TGI was found to be 5.46 µM.

With `CSc1ccc2c(c1)C(N1CCN(C)CC1)Cc1ccccc1S2` (configuration not stated), the GI50 was 1.47 µM and the TGI is 3.06 µM.

Regarding `CCn1c(-c2nonc2N)nc2cncc(C(=O)N3CC[C@H](N)C3)c21`, the GI50 is 4.57 µM and the TGI was determined as 24.5 µM.

As for `COc1nnc2ccc(N3CCC(c4ccc(OCCN5CCN(C)C(=O)[C@H]5C)cc4)CC3)nn12`, the GI50 was 0.052 µM and the total growth inhibition concentration (TGI) is over 34.8 µM.

For `Cc1cc([N+](=O)[O-])c2ccccc2[n+]1[O-]`, the GI50 was 0.18 µM and 0.121 µM; the TGI is 0.512 µM and 0.369 µM.

In the case of `O=c1oc2ccc(-c3ccc(F)cc3F)cc2c(=O)n1-c1ccc(F)c(F)c1`, the GI50 was 1.01 µM and the concentration for total growth inhibition (TGI) was 4.23 µM.

Regarding `CN1CSC(=S)N(Cc2ccccc2)C1`, the GI50 is 2.02 µM and the TGI was found to be 6.03 µM.

As for `CCN(CC)Cc1cc2[nH]c3c4ccc(Cl)cc4ncc3c2cc1OC`, the GI50 is 1.87 µM and 1.52 µM; the total growth inhibition concentration (TGI) is 3.64 µM and 3 µM.

As to `Oc1[nH]c2ccccc2c1/C=c1/cc2c(c(-c3ccc(F)cc3)n1)=Nc1ccccc1-2`, the GI50 is 0.282 µM and the TGI worked out at 0.978 µM.

For the molecule `CC[C@H](C)[C@H](NC(=O)CN(C)C)C(=O)N(C)[C@H](C[C@@H](OC(C)=O)c1nc(C(=O)NC23CC(C(=O)OC)(C2)C3)cs1)C(C)C`, the GI50 was 0.13 µM and the TGI is over 25 µM.

Consider `N=c1c2c(=N)n3c(nc2nc2n1-c1ccccc1Sc1ccccc1-2)sc1cc(Cl)ccc13`, for which the GI50 was 1.34 µM and the TGI was 5.41 µM.

Regarding `O=C1/C=C/[C@@H](O)[C@@H]2C[C@@H](O)C[C@H]2/C=C/CCC[C@H](C(F)(F)F)O1`, the GI50 was 0.0233 µM and the TGI is 0.0691 µM.

`COc1cc2c(=O)[nH]c3cc([N+](=O)[O-])ccc3c2cc1[N+](=O)[O-]`: the GI50 is 1.03 µM and the TGI was 4.18 µM.

As for `CC1OC(O[C@@H]2[C@H](O)C(CO)OC(O[C@H]3COC(O[C@H]4CC[C@]5(C)[C@H]6CC[C@]78OC[C@@]9(CCC(C)(C)C[C@H]97)[C@H](O)C[C@@]8(C)[C@]6(C)CC[C@H]5C4(C)C)[C@@H](OC4OC(CO)[C@@H](O)[C@@H](O)[C@@H]4O)[C@@H]3O)[C@H]2OC2OC[C@@H](O)[C@@H](O)[C@@H]2O)[C@@H](O)[C@@H](O)[C@H]1O` (some centres not stated), the GI50 is 2.11 µM and the TGI amounted to 4.33 µM.

`NC(=S)c1c(N)n(C2OC(CO)C(O)C2O)c2ncnc(N)c12` (configuration not stated): the GI50 is 0.135 µM and the TGI came to 0.326 µM.

Take `O=[N+]([O-])c1cccc(C2CC(c3ccccc3)=Nc3ccccc3S2)c1` (configuration not stated): the GI50 was 13.4 µM and the TGI was found to be 31.2 µM.

On to `CC[C@H](C)[C@H](NC(=O)[C@H]1CCCCN1C)C(=O)N(C)[C@H](C[C@@H](OC(C)=O)c1nc(C(=O)N[C@@H](Cc2ccccc2)C[C@H](C)C(=O)O)cs1)C(C)C`, for which the GI50 is 0.000378 µM and 0.00165 µM; the TGI was determined as 0.00398 µM.

With `O=C1Cc2cc(C(=O)NC3C[C@H]4CC[C@@H](C3)N4S(=O)(=O)CC3CCN(CCCC(F)(F)F)CC3)c(Cl)cc2N1` (some centres not stated), the GI50 is 27 µM and the TGI is over 100 µM.

For the molecule `Cn1c(-c2c(N)n(CCCN3CCOCC3)c3nc(C#N)c(C#N)nc23)nc2ccccc21`, the GI50 was 4.64 µM and the TGI is over 100 µM.

For the molecule `COc1ccc(N(C)c2nc(N)nc3sc4c(c23)CCCC4)cc1`, the GI50 is under 0.01 µM.

As to `COc1cc(-c2nn(-c3cccc(NC(=O)c4ccc(Cl)c(C(F)(F)F)c4)c3)cc2-c2ccncc2)ccc1Cl`, the GI50 is 2.74 µM and the TGI was over 32.5 µM.

For `COC(=O)c1ccc(NC(=O)Oc2ccc(N(CCCl)CCCl)cc2)cc1`, the GI50 was 1.22 µM and the TGI amounted to 9.77 µM.

In the case of `Cc1cc(Cl)nc(N(CCCNc2ccnc3cc(Cl)ccc23)Cc2ccco2)n1`, the GI50 was 1.12 µM and the TGI came to 3.94 µM.

With `c1ccc2c3c([nH]c2c1)C(c1ccc(C2NCCc4c2[nH]c2ccccc42)cc1)NCC3` (configuration not stated), the GI50 was 0.367 µM and the TGI turned out to be 1.34 µM.

For the molecule `O=C1NC(=NCCCc2ccccc2)S/C1=C\c1ccc2ncccc2c1`, the GI50 is 4.37 µM and the TGI was 17.4 µM.

On to `CO[C@H]1C[C@@H]2CC[C@@H](C)[C@@](O)(O2)C(=O)C(=O)N2CCCC[C@H]2C(=O)O[C@H]([C@H](C)C[C@@H]2CC[C@@H](OCCO)[C@H](OC)C2)CC(=O)[C@H](C)C=C(C)[C@@H](O)[C@@H](OC)C(=O)[C@H](C)C[C@H](C)/C=C/C=C/C=C1C`, for which the GI50 is under 0.0117 µM and the TGI came out at 14.9 µM.

For the molecule `COc1ccc(/C(C#N)=C2C=C/C(=N/O)c3ccccc3\2)cc1`, the GI50 was 0.395 µM and the TGI is 16.5 µM.

As for `CN1CCN(c2nc(-c3cnc4ccccc4n3)cc3ccccc23)CC1`, the GI50 is 4.98 µM and the TGI stood at 10.6 µM.

As to `CC(=O)c1c(C)[nH]c(-c2nc3ccc(N4CCN(C)CC4)cc3[nH]2)c1-c1ccccc1`, the GI50 was 0.361 µM and the TGI amounted to 9.27 µM.

With `CN(Cc1cnc2nc(N)nc(N)c2n1)c1ccc(C(=O)NC(CCC(=O)O)C(=O)O)cc1Br` (configuration not stated), the GI50 was under 0.01 µM and the TGI amounted to 1.91 µM.

Turning to `CN(CCCNC(=O)CCOCCOCCOCCNC(=O)Cc1ccc2ccc3cccc4ccc1c2c34)CCCNc1cc(-c2ccc3ccccc3c2)nc2ccccc12`, the GI50 was 0.509 µM and the TGI came to 1.03 µM.

In the case of `COc1ccc(N=N/C(C(=O)C(F)(F)F)=C(\O)c2ccc(Cl)cc2)cc1`, the GI50 is 1.84 µM and the TGI is 5.68 µM.

On to `CC(=O)[O][Hg][c]1c(C)c(C)cc(C)c1C`, for which the GI50 was 0.793 µM and the TGI is 2.15 µM.

With `COc1cc2nc3cc([N+](=O)[O-])ccc3c(NCCNCC(C)(C)O)c2cc1OC`, the GI50 is 0.22 µM and the TGI stood at 0.614 µM.
